From ChEMBL document CHEMBL1153301, “Identification and SAR of novel diaminopyrimidines. Part 1: The discovery of RO-4, a dual P2X(3)/P2X(2/3) antagonist for the treatment of pain” (Bioorg Med Chem Lett, 2009) come the findings set out here.

Data set [1] concerns the target T1, P2X2/P2X3 heterotrimeric receptor (Homo sapiens, UniProt P56373+Q9UBL9).
T1 sequence (Q9UBL9 whole entry): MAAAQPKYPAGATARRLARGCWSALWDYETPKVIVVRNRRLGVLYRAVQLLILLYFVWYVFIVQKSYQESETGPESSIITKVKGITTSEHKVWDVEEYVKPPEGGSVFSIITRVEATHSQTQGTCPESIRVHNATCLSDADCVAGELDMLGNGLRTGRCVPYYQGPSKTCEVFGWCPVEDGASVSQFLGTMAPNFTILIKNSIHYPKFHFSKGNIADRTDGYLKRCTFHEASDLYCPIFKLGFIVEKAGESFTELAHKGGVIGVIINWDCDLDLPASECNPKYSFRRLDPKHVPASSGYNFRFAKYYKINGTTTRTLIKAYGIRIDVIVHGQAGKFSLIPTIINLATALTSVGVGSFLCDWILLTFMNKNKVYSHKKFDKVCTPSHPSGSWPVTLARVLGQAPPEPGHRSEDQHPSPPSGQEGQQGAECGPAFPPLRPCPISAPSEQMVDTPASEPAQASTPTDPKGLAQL
T1 sequence (P56373 whole entry): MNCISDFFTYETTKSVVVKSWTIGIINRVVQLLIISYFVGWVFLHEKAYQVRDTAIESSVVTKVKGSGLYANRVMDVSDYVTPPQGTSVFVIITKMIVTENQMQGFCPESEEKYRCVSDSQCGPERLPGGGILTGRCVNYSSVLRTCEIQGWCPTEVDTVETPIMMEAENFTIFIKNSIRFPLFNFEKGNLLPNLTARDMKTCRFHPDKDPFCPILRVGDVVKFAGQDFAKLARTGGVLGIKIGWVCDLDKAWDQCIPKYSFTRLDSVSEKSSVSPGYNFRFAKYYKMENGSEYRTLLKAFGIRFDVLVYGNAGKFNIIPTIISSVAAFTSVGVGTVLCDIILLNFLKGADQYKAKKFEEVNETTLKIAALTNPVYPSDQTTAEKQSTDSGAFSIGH
The data set can be described thus: Antagonist activity at human recombinant P2X2/3 receptor expressed in human 1321N1 cells by FLIPR assay. It is filed as functional, cell-based.

Another data set has as its target T2, P2X purinoceptor 1 (Homo sapiens, UniProt P51575).
T2 sequence (P51575 whole entry): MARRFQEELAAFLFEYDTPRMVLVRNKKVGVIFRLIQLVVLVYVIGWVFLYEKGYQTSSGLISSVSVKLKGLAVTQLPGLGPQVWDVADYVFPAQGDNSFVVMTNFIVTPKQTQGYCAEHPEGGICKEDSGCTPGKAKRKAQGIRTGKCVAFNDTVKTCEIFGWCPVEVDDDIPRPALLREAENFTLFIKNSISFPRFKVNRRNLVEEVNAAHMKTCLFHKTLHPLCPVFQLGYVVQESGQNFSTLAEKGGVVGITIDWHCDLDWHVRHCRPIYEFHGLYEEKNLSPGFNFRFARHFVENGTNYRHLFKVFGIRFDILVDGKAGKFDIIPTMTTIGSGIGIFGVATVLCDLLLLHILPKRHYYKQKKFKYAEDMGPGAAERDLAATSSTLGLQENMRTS
The data set can be described thus: Inhibition of P2X1 receptor.

In the next data set the target is T3, P2X purinoceptor 2 (Homo sapiens, UniProt Q9UBL9).
T3 sequence (Q9UBL9 whole entry): T1 sequence (Q9UBL9 whole entry)
Put plainly: Inhibition of P2X2 receptor.

For a further data set, the system named is Caco-2. The data set can be described thus: Ratio of permeability from basolateral to apical side over apical to basolateral side in human Caco-2 cells. It is filed as ADME, cell-based. (Caco-2 cells form a polarised layer with tight junctions and transporters.)
The target of another data set is T4, P2X purinoceptor 4 (Homo sapiens, UniProt Q99571).
T4 sequence (Q99571 whole entry): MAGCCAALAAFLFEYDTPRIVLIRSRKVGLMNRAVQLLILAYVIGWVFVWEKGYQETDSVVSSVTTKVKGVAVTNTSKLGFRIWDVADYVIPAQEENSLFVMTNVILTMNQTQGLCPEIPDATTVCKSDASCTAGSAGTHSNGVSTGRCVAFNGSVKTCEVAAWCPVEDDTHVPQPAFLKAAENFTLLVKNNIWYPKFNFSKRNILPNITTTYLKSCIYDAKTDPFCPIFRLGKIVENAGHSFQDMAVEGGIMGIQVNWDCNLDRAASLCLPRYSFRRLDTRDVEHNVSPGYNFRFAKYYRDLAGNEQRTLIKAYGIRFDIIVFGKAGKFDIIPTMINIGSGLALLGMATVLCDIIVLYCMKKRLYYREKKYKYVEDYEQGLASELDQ
Put plainly: Inhibition of P2X4 receptor.

Data set [2] is described as follows: Inhibition of ML1 receptor.
The target in the next data set is Histamine H2 receptor (Homo sapiens, UniProt P25021). The data set can be described thus: Inhibition of histamine H2 receptor.
The next data set addresses P2X purinoceptor 5 (Homo sapiens, UniProt Q93086). Put plainly: Inhibition of P2X5 receptor.
Data set [3] concerns the target T5, 5-hydroxytryptamine receptor 3A (Homo sapiens, UniProt P46098).
T5 sequence (P46098 whole entry): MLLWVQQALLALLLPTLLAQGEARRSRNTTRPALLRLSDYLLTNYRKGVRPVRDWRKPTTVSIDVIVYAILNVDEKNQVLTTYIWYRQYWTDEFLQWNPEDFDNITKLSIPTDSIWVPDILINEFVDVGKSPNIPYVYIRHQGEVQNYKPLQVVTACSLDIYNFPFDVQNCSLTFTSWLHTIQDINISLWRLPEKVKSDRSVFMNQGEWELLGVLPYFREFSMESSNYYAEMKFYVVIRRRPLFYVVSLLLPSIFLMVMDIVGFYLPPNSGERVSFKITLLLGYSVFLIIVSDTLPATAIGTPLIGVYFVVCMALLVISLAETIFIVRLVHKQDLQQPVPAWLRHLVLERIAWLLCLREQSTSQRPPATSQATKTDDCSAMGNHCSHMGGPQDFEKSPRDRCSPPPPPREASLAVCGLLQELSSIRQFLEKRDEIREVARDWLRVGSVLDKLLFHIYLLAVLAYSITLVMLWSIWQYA
Put plainly: Inhibition of 5HT3 receptor.

Data set [4] is described as follows: Clearance in dog. In kind it is ADME, organism-based, Canis lupus familiaris. To be noted: in vivo.
In a further data set the target is T6, P2X purinoceptor 7 (Homo sapiens, UniProt Q99572).
T6 sequence (Q99572 whole entry): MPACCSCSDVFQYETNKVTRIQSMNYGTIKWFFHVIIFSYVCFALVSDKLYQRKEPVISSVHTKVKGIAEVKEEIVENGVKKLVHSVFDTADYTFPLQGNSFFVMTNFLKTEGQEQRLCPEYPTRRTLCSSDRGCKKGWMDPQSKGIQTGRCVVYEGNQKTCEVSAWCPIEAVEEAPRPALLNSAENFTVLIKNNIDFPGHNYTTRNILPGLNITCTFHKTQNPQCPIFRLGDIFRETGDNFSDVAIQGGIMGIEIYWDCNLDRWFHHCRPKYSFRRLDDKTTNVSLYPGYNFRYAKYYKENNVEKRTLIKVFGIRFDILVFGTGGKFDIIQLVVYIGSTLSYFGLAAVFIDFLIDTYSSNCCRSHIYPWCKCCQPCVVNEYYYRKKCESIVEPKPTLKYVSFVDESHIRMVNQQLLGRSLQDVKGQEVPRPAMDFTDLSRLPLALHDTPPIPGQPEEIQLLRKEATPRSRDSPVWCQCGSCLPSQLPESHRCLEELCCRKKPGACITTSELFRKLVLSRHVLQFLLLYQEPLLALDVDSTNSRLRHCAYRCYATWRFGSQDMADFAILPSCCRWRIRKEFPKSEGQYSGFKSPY
The data set can be described thus: Inhibition of P2X7 receptor.

The target of data set [5] is 5-hydroxytryptamine receptor 6 (Homo sapiens, UniProt P50406). The data set can be described thus: Inhibition of 5HT6 receptor.
For another data set, the target named is T7, P2X purinoceptor 3 (Rattus norvegicus, UniProt P49654).
T7 sequence (P49654 whole entry): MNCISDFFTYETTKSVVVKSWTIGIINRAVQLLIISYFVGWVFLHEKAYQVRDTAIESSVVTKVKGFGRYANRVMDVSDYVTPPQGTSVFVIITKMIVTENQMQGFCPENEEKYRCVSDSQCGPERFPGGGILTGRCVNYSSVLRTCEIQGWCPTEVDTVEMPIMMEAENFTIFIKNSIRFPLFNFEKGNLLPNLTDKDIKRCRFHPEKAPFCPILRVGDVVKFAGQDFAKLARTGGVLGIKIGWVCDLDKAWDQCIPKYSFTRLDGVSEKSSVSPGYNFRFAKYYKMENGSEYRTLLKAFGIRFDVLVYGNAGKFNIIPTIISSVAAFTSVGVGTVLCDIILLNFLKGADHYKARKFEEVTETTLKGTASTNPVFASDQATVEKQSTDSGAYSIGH
Put plainly: Antagonist activity at rat recombinant P2X3 receptor expressed in CHO cells by FLIPR assay. To be noted: cho.

The target of data set [6] is 5-hydroxytryptamine receptor 2A (Homo sapiens, UniProt P28223). The data set can be described thus: Inhibition of 5HT2A receptor.

SMILES strings stand for the structures.

P2X purinoceptor 5, sequence (Q93086 whole entry): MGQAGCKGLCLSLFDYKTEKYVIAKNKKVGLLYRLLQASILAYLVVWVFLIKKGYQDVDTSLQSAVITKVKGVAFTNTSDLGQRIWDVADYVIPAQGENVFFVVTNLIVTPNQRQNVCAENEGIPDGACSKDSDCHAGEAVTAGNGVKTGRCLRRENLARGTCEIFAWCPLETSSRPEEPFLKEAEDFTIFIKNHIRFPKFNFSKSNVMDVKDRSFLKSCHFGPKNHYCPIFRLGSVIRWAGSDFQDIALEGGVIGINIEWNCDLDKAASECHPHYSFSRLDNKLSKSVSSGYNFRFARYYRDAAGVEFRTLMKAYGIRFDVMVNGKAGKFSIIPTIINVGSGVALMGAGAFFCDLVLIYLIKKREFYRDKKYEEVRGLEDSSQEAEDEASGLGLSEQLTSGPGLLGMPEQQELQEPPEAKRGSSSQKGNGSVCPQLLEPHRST
5-hydroxytryptamine receptor 6, sequence (P50406 whole entry): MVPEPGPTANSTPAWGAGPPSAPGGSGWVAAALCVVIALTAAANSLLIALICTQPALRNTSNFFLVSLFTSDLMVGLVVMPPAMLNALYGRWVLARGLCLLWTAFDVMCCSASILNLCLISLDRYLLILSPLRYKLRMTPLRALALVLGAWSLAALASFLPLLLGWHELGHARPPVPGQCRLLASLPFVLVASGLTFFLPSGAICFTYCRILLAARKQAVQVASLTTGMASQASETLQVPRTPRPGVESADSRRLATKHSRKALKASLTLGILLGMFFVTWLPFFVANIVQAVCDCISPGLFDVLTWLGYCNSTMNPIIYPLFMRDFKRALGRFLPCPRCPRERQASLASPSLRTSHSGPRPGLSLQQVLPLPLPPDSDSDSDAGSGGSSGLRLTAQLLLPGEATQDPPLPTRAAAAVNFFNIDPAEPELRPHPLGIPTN
5-hydroxytryptamine receptor 2A, sequence (P28223 whole entry): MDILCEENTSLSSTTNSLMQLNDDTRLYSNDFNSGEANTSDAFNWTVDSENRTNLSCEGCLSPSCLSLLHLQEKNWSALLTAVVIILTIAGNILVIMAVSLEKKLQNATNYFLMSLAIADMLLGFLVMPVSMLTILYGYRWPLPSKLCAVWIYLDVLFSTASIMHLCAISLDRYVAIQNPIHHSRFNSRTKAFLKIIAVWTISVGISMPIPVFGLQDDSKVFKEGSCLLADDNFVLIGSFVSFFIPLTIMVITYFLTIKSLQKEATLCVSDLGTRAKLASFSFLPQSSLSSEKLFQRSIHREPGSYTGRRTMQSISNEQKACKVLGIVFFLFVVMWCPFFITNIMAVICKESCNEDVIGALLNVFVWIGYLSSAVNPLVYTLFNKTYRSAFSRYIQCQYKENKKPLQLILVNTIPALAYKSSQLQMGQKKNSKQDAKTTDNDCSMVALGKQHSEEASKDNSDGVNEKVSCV
Histamine H2 receptor, sequence (P25021 whole entry): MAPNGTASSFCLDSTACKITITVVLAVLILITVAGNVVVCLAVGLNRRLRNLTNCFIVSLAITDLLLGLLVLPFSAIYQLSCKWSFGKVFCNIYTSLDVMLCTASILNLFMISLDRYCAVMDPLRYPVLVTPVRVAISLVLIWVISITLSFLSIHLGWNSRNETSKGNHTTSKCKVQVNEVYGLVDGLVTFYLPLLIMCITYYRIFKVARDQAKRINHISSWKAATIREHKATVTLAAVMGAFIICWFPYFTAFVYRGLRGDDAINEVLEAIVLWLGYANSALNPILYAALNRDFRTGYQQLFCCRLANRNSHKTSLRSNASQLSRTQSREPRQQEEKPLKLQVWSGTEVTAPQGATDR

As usually defined, the IC50 is the point on the concentration scale where inhibition reaches its midpoint. A word on the Ki: it is the dissociation constant of the complex between target and ligand, obtained from inhibition or displacement. A lower Ki goes with higher affinity. As usually defined, the clearance is the rate of elimination divided by the concentration. A lower clearance goes with a low capacity for elimination. What is called pIC50 is the IC50 on a negative log10 scale, so that one unit is a factor of ten. Consider `COc1cc(C(C)C)c(Oc2cnc(N)nc2N)cc1I`, for which the half-inhibitory concentration (IC50) was 79.4 nM in [1]; greater than 10000 nM on P2X purinoceptor 1; greater than 10000 nM against P2X purinoceptor 2; greater than 10000 nM against P2X purinoceptor 4; greater than 10000 nM against P2X purinoceptor 5; greater than 10000 nM at P2X purinoceptor 7. Further, in the data set on Caco-2, the Ratio is reported as 1. Besides, the inhibitory constant (Ki) (in data set [2]; on Histamine H2 receptor; in data set [3]; in data set [5]; in data set [6]) was 1000 nM throughout. Also, in [4], the clearance came out at 13 mL/min/kg. For the same compound, the negative logarithm of the IC50 (pIC50) at P2X purinoceptor 3 worked out at 8.
